The target of data set [1] is T1, TmFtsH (FtsH from Thermotoga maritima), full length (Thermotoga maritima, UniProt Q9WZ49, H423Y).
T1 construct: full length, His-tag purification (HisTrap), E. coli BL21(DE3) pLysS membranes, LDAO, reconstituted in MSP1D1 nanodiscs with soybean polar lipids; homohexamer; only ATPase and protease domains modelled (2484 residues per hexamer)
Nature of the data set: cryo-EM structure ([…] A). It counts as binding. Particulars: six ADP per hexamer, one in each ATPase domain; endogenous co-purified ADP, none added; MSP1D1 nanodiscs, pH 7.6; C6 symmetry.

Data set [2] deals with the molecule itself. In words: cryo-EM structure; TmFtsH H423Y in MSP1D1 nanodiscs (soybean polar lipids), diluted in 20 mM HEPES pH 7.6, 100 mM NaCl, 0.05% CHAPS; no ADP or ATP added; C6 reconstruction at 3.15 Å (C1: 3.4 Å) of the ATPase and protease domains; full-length reconstruction at 7.9 Å without symmetry.

The source of these data is PMC8943139, “Cryo-EM structure of transmembrane AAA+ protease FtsH in the ADP state” (Communications Biology, 2022).

In the case of `Nc1ncnc2c1ncn2[C@@H]1O[C@H](COP(=O)(O)OP(=O)(O)O)[C@@H](O)[C@H]1O` [ADP], in data set [1], the “cryo-EM structure (3.15 A)” value was “ADP bound endogenously to TmFtsH and survived the co-purification and reconstitution processes”.

B1: Thermotoga maritima FtsH (TmFtsH) H423Y mutant, full length (enzyme, UniProt Q9WZ49 1-610, looked up)
chain: MNRSNIWNLLFTILIIVTLFWLARFFYVENSPVSKLSYTSFVQMVEDERSVVSEVVIRDDGVLRVYTKDGRVYEVDAPWAVNDSQLIEKLVSKGIKVSGERSGSSSFWINVLGTLIPTILFIVVWLFIMRSLSGRNNQAFTFTKSRATMYKPSGNKRVTFKDVGGAEEAIEELKEVVEFLKDPSKFNRIGARMPKGILLVGPPGTGKTLLARAVAGEANVPFFHISGSDFVELFVGVGAARVRDLFAQAKAHAPCIVFIDEIDAVGRHRGAGLGGGHDEREQTLNQLLVEMDGFDSKEGIIVMAATNRPDILDPALLRPGRFDKKIVVDPPDMLGRKKILEIHTRNKPLAEDVNLEIIAKRTPGFVGADLENLVNEAALLAAREGRDKITMKDFEEAIDRVIAGPARKSKLISPKEKRIIAYYEAGHAVVSTVVPNGEPVHRISIIPRGYKALGYTLHLPEEDKYLVSRNELLDKLTALLGGRAAEEVVFGDVTSGAANDIERATEIARNMVCQLGMSEELGPLAWGKEEQEVFLGKEITRLRNYSEEVASKIDEEVKKIVTNCYERAKEIIRKYRKQLDNIVEILLEKETIEGDELRRILSEEFEKVVE
notes: FtsH (Filamentation Temperature Sensitive Protein H) of Thermotoga maritima, full-length cDNA in the pET24-derived pMSCG-7 plasmid, with the H423Y mutation; 610 residues are named in the comparison with YME1; The vector probably adds an N-terminal His6 tag with a TEV site (surmised), and no cleavage is described; The atomic model 7TDO covers only the ATPase and protease domains (2484 residues in …)
The stoichiometry N is a count of units in the complex or per binding partner. Regarding B1, the “stoichiometry N” value in data set [2] was 6.
